Here are results for 20 molecules from patent publication US20240300980A1, “HETEROCYCLIC COMPOUNDS AS KRAS INHIBITOR, AND PREPARATION THEREFOR AND USE THEREOF IN TREATMENT” (SHANGHAI KECHOW PHARMA, INC., priority 2021, published 2024).

Structures are written as SMILES.

The test concerns AGS cells (KRAS^G12D). Kind of test: Detection of cell proliferation in vitro by MTT/MTS method (cell activity experiment). Format: cell-based. The following applies: Homo sapiens, AGS, 72 h, AGS cells; MTT/MTS; 3 days of drug treatment; read-out: AGS IC50. The gist of the method: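 KRAS G12D AGS cells seeded at 1000 per well, compound added 24 h later, 0.5% final DMSO. Viability read after 3 days of treatment by MTT (solubilised in DMSO) or MTS, 4 h, absorbance 490 nm. IC50 from dose–response curves versus DMSO control.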
Background: Formazan colour is commonly taken as a measure of viable cells.
`CC1OCCc2cc(O)cc(-c3ncc4c(N5C[C@H]6CC[C@@H](C5)N6)nc(OC[C@@]56CCCN5C[C@H](F)C6)nc4c3F)c21` (stereo partly drawn) [Example 356, 8-(4-((1R,5S)-3,8-diazabicyclo[3.2.1]octan-3-yl)-8-fluoro-2-(((2R,7aS)-2-fluorotetrahydro-1H-pyrrolizin-7a(5H)-yl)methoxy)pyrido[4,3-d]pyrimidin-7-yl)-1-methylisochroman-6-ol]: the IC50 was 21 nM.

As for `CN1CCCc2cc(O)cc(-c3ncc4c(N5C[C@H]6CC[C@@H](C5)N6)nc(OC[C@@]56CCCN5C[C@H](F)C6)nc4c3F)c21` [Example 359, 8-(4-((1R,5S)-3,8-diazabicyclo[3.2.1]octan-3-yl)-8-fluoro-2-(((2R,7aS)-2-fluorotetrahydro-1H-pyrrolizin-7a(5H)-yl)methoxy)pyrido[4,3-d]pyrimidin-7-yl)-1-methyl-1,2,3,4-tetrahydroquinolin-6-ol], the IC50 was determined as 35 nM.

On to `CSc1c(F)ccc2cc(O)cc(-c3ncc4c(N5C[C@H]6CC[C@@H](C5)N6)nc(OC[C@@]56CCCN5C[C@H](F)C6)nc4c3F)c12` [Example 360, 4-(4-((1R,5S)-3,8-diazabicyclo[3.2.1]octan-3-yl)-8-fluoro-2-(((2R,7aS)-2-fluorotetrahydro-1H-pyrrolizin-7a(5H)-yl)methoxy)pyrido[4,3-d]pyrimidin-7-yl)-6-fluoro-5-(methylthio)naphthalen-2-ol], for which the IC50 is 10 nM.

Take `Oc1cc(C#Cc2ccc3c(N4C[C@H]5CC[C@@H](C4)N5)nc(OC[C@@]45CCCN4C[C@H](F)C5)nc3c2F)c2ccccc2c1` [Example 363, 4-((4-((1R,5S)-3,8-diazabicyclo[3.2.1]octan-3-yl)-8-fluoro-2-(((2R,7aS)-2-fluorotetrahydro-1H-pyrrolizin-7a(5H)-yl)methoxy)quinazolin-7-yl)ethynyl)naphthalen-2-ol]: the IC50 came out at 753 nM.

With `Oc1cccc2cccc(C#Cc3ccc4c(N5C[C@H]6CC[C@@H](C5)N6)nc(OC[C@@]56CCCN5C[C@H](F)C6)nc4c3F)c12` [Example 364, 8-((4-((1R,5S)-3,8-diazabicyclo[3.2.1]octan-3-yl)-8-fluoro-2-(((2R,7aS)-2-fluorotetrahydro-1H-pyrrolizin-7a(5H)-yl)methoxy)quinazolin-7-yl)ethynyl)naphthalen-1-ol], the IC50 stood at 811 nM.

On to `Oc1ccc2ccccc2c1C#Cc1ccc2c(N3C[C@H]4CC[C@@H](C3)N4)nc(OC[C@@]34CCCN3C[C@H](F)C4)nc2c1F` [Example 365, 1-((4-((1R,5S)-3,8-diazabicyclo[3.2.1]octan-3-yl)-8-fluoro-2-(((2R,7aS)-2-fluorotetrahydro-1H-pyrrolizin-7a(5H)-yl)methoxy)quinazolin-7-yl)ethynyl)naphthalen-2-ol], for which the IC50 turned out to be 3640 nM.

For the molecule `Oc1cc(O)c2c(C#Cc3ccc4c(N5C[C@H]6CC[C@@H](C5)N6)nc(OC[C@@]56CCCN5C[C@H](F)C6)nc4c3F)c(F)ccc2c1` [Example 366, 8-((4-((1R,5S)-3,8-diazabicyclo[3.2.1]octan-3-yl)-8-fluoro-2-(((2R,7aS)-2-fluorotetrahydro-1H-pyrrolizin-7a(5H)-yl)methoxy)quinazolin-7-yl)ethynyl)-7-fluoronaphthalene-1,3-diol], the IC50 was found to be 2100 nM.

As for `Oc1ccc2c(C#Cc3ccc4c(N5C[C@H]6CC[C@@H](C5)N6)nc(OC[C@@]56CCCN5C[C@H](F)C6)nc4c3F)c(F)ccc2c1` [Example 367, 5-((4-((1R,5S)-3,8-diazabicyclo[3.2.1]octan-3-yl)-8-fluoro-2-(((2R,7aS)-2-fluorotetrahydro-1H-pyrrolizin-7a(5H)-yl)methoxy)quinazolin-7-yl)ethynyl)-6-fluoronaphthalen-2-ol], the IC50 was 194 nM.

Take `Oc1ccc2c(C#Cc3ncc4c(N5C[C@H]6CC[C@@H](C5)N6)nc(OC[C@@]56CCCN5C[C@H](F)C6)nc4c3F)c(F)ccc2c1` [Example 368, 5-((4-((1R,5S)-3,8-diazabicyclo[3.2.1]octan-3-yl)-8-fluoro-2-(((2R,7aS)-2-fluorotetrahydro-1H-pyrrolizin-7a(5H)-yl)methoxy)pyrido[4,3-d]pyrimidin-7-yl)ethynyl)-6-fluoronaphthalen-2-ol]: the half-inhibitory concentration (IC50) came to 55 nM.

`C#Cc1cc2c(N3C[C@H]4CC[C@@H](C3)N4)nc(OC[C@@]34CCCN3C[C@H](F)C4)nc2c(F)c1-c1cc(O)cc2ccccc12` [Example 369, 4-(4-((1R,5S)-3,8-diazabicyclo[3.2.1]octan-3-yl)-6-ethynyl-8-fluoro-2-(((2R,7aS)-2-fluorotetrahydro-1H-pyrrolizin-7a(5H)-yl)methoxy)quinazolin-7-yl)naphthalen-2-ol]: the IC50 was 180 nM.

In the case of `C#Cc1cc2c(N3C[C@H]4CC[C@@H](C3)N4)nc(OC[C@@]34CCCN3C[C@H](F)C4)nc2c(F)c1-c1cc(O)cc2c1C(CC)CC2` (stereo partly drawn) [Example 371, 7-(4-((1R,5S)-3,8-diazabicyclo[3.2.1]octan-3-yl)-6-ethynyl-8-fluoro-2-(((2R,7aS)-2-fluorotetrahydro-1H-pyrrolizin-7a(5H)-yl)methoxy)quinazolin-7-yl)-1-ethyl-2,3-dihydro-1H-inden-5-ol], the IC50 amounted to 85 nM.

Consider `C#Cc1cc2c(N3C[C@H]4CC[C@@H](C3)N4)nc(OC[C@@]34CCCN3C[C@H](F)C4)nc2c(F)c1-c1cc(O)cc2c1C(CC)C1CC21` (stereo partly drawn) [Example 372, 5-(4-((1R,5S)-3,8-diazabicyclo[3.2.1]octan-3-yl)-6-ethynyl-8-fluoro-2-(((2R,7aS)-2-fluorotetrahydro-1H-pyrrolizin-7a(5H)-yl)methoxy)quinazolin-7-yl)-6-ethyl-1,1a,6,6a-tetrahydrocyclopropa[a]inden-3-ol], for which the IC50 was 65 nM.

In the case of `C#Cc1cc2c(N3C[C@H]4CC[C@@H](C3)N4)nc(OC[C@@]34CCCN3C[C@H](F)C4)nc2c(F)c1-c1cc(O)cc2ccc(F)c(C#C)c12` [Example 373, 4-(4-((1R,5S)-3,8-diazabicyclo[3.2.1]octan-3-yl)-6-ethynyl-8-fluoro-2-(((2R,7aS)-2-fluorotetrahydro-1H-pyrrolizin-7a(5H)-yl)methoxy)quinazolin-7-yl)-5-ethynyl-6-fluoronaphthalen-2-ol], the IC50 is 30 nM.

`C#Cc1cc2c(N3C[C@H]4CC[C@@H](C3)N4)nc(OC[C@@]34CCCN3C[C@H](F)C4)nc2c(F)c1-c1cc(O)cc2c1C(C)CCC2` (stereo partly drawn) [Example 374, 4-(4-((1R,5S)-3,8-diazabicyclo[3.2.1]octan-3-yl)-6-ethynyl-8-fluoro-2-(((2R,7aS)-2-fluorotetrahydro-1H-pyrrolizin-7a(5H)-yl)methoxy)quinazolin-7-yl)-5-methyl-5,6,7,8-tetrahydronaphthalen-2-ol]: the IC50 was found to be 32 nM.

As to `CC1CCCc2cc(O)cc(-c3c(-c4cn[nH]c4)cc4c(N5C[C@H]6CC[C@@H](C5)N6)nc(OC[C@@]56CCCN5C[C@H](F)C6)nc4c3F)c21` (stereo partly drawn) [Example 376, 4-(4-((1R,5S)-3,8-diazabicyclo[3.2.1]octan-3-yl)-8-fluoro-2-(((2R,7aS)-2-fluorotetrahydro-1H-pyrrolizin-7a(5H)-yl)methoxy)-6-(1H-pyrazol-4-yl)quinazolin-7-yl)-5-methyl-5,6,7,8-tetrahydronaphthalen-2-ol], the IC50 turned out to be 100 nM.

With `Oc1cc(-c2c(-c3cn[nH]c3)cc3c(N4C[C@H]5CC[C@@H](C4)N5)nc(OC[C@@]45CCCN4C[C@H](F)C5)nc3c2F)c2ccccc2c1` [Example 377, 4-(4-((1R,5S)-3,8-diazabicyclo[3.2.1]octan-3-yl)-8-fluoro-2-(((2R,7aS)-2-fluorotetrahydro-1H-pyrrolizin-7a(5H)-yl)methoxy)-6-(1H-pyrazol-4-yl)quinazolin-7-yl)naphthalen-2-ol], the IC50 amounted to 120 nM.

On to `C#Cc1c(F)ccc2cc(O)cc(-c3c(CCC#N)cc4c(N5C[C@H]6CC[C@@H](C5)N6)nc(OC[C@@]56CCCN5C[C@H](F)C6)nc4c3F)c12` [Example 378, 3-(4-((1R,5S)-3,8-diazabicyclo[3.2.1]octan-3-yl)-7-(8-ethynyl-7-fluoro-3-hydroxynaphthalen-1-yl)-8-fluoro-2-(((2R,7aS)-2-fluorotetrahydro-1H-pyrrolizin-7a(5H)-yl)methoxy)quinazolin-6-yl)propanenitrile], for which the IC50 is 160 nM.

As to `C#Cc1c(F)ccc2cc(O)cc(-c3c4c(c5c(N6C[C@H]7CC[C@@H](C6)N7)nc(OC[C@@]67CCCN6C[C@H](F)C7)nc5c3F)CCC4)c12` [Example 379, 4-(1-((1R,5S)-3,8-diazabicyclo[3.2.1]octan-3-yl)-5-fluoro-3-(((2R,7aS)-2-fluorotetrahydro-1H-pyrrolizin-7a(5H)-yl)methoxy)-8,9-dihydro-7H-cyclopenta[f]quinazolin-6-yl)-5-ethynyl-6-fluoronaphthalen-2-ol], the IC50 was 90 nM.

Turning to `Oc1cc(-c2c3c(c4c(N5C[C@H]6CC[C@@H](C5)N6)nc(OC[C@@]56CCCN5C[C@H](F)C6)nc4c2F)CCC3)c2c(F)c(F)ccc2c1` [Example 380, 4-(1-((1R,5S)-3,8-diazabicyclo[3.2.1]octan-3-yl)-5-fluoro-3-(((2R,7aS)-2-fluorotetrahydro-1H-pyrrolizin-7a(5H)-yl)methoxy)-8,9-dihydro-7H-cyclopenta[f]quinazolin-6-yl)-5,6-difluoronaphthalen-2-ol], the concentration for half-maximal inhibition (IC50) is 95 nM.

As for `CCC1CCc2cc(O)cc(-c3c4c(c5c(N6C[C@H]7CC[C@@H](C6)N7)nc(OC[C@@]67CCCN6C[C@H](F)C7)nc5c3F)CCC4)c21` (stereo partly drawn) [Example 381, 7-(1-((1R,5S)-3,8-diazabicyclo[3.2.1]octan-3-yl)-5-fluoro-3-(((2R,7aS)-2-fluorotetrahydro-1H-pyrrolizin-7a(5H)-yl)methoxy)-8,9-dihydro-7H-cyclopenta[f]quinazolin-6-yl)-1-ethyl-2,3-dihydro-1H-inden-5-ol], the IC50 was determined as 75 nM.

The term IC50 denotes the concentration needed to halve the response being measured.
